pEC50: −log10 of the molar value.
Legend:
[1] = target: xanthine oxidase (XO) (Bos taurus, UniProt P80457); assay: XO inhibition type and kinetics (Lineweaver-Burk and secondary plots); assay type: biochemical; settings: for mode of XO inhibition: Lineweaver-Burk plots
Method: In order to further exploring the inhibitory activities of four inhibitors, the inhibition type and inhibition kinetics constants were assayed.
For inhibition test, 20 μL of XO solution (1 mg/mL in buffers) and 1 mL of sample with different concentrations were mixed in a quartz cuvette. Then, 1 mL of […] (1 mg/mL) was added to start reaction and the increase of absorbance at 295 nm in 100 s was recorded by an UV-Vis Spectrophotometer (UV2700, Shimadzu, Kyoto, Japan). […] All experiments were performed in triplicate. The inhibition of XO was calculated by the following formula. Inhibition% = (1 − ΔAs/ΔA0) × 100 (1) where ΔAs and ΔA0 are the changes of absorbance for sample and blank, respectively.

[2] = DPPH free radical scavenging test; settings: DPPH 0.1 mM in methanol, 30 min in dark, 517 nm
Method: The DPPH and ABTS· radical scavenging tests were measured according to the reported method with some modifications. For DPPH test, 0.5 mL of sample with different concentrations were mixed thoroughly with 2 mL of DPPH solution (0.1 mM in methanol). The mixture was then kept in dark for 30 min. Finally, the absorbance of solution was measured by an UV-Vis Spectrophotometer (UV2700, Shimadzu, Kyoto, Japan) at 517 nm.
(§1) For ABTS test, ABTS solution (2 mL of ABTS stock solution (0.01 M) added to 58 mL phosphate buffers, pH 7.0) was incubated for 12 h and diluted with methanol for use. Then, 0.5 mL of samples with different concentrations were mixed thoroughly with 2 mL of ABTS solution. The mixture was kept in dark for 30 min, and the absorbance at 734 nm was measured by an UV-Vis Spectrophotometer. The same amount of water was used as control instead of sample. All experiments were performed in triplicate. The scavenging activity of DPPH and ABTS· radicals was calculated by the following formula: Radical scavenging rate% = 1 − As/A0 × 100 (2) where A0 was the absorbance of control and As was the absorbance of sample.

[3] = ABTS radical scavenging test; settings: 30 min in dark, 734 nm
Method: as §1

Sequence of xanthine oxidase (XO) (P80457 2-1332): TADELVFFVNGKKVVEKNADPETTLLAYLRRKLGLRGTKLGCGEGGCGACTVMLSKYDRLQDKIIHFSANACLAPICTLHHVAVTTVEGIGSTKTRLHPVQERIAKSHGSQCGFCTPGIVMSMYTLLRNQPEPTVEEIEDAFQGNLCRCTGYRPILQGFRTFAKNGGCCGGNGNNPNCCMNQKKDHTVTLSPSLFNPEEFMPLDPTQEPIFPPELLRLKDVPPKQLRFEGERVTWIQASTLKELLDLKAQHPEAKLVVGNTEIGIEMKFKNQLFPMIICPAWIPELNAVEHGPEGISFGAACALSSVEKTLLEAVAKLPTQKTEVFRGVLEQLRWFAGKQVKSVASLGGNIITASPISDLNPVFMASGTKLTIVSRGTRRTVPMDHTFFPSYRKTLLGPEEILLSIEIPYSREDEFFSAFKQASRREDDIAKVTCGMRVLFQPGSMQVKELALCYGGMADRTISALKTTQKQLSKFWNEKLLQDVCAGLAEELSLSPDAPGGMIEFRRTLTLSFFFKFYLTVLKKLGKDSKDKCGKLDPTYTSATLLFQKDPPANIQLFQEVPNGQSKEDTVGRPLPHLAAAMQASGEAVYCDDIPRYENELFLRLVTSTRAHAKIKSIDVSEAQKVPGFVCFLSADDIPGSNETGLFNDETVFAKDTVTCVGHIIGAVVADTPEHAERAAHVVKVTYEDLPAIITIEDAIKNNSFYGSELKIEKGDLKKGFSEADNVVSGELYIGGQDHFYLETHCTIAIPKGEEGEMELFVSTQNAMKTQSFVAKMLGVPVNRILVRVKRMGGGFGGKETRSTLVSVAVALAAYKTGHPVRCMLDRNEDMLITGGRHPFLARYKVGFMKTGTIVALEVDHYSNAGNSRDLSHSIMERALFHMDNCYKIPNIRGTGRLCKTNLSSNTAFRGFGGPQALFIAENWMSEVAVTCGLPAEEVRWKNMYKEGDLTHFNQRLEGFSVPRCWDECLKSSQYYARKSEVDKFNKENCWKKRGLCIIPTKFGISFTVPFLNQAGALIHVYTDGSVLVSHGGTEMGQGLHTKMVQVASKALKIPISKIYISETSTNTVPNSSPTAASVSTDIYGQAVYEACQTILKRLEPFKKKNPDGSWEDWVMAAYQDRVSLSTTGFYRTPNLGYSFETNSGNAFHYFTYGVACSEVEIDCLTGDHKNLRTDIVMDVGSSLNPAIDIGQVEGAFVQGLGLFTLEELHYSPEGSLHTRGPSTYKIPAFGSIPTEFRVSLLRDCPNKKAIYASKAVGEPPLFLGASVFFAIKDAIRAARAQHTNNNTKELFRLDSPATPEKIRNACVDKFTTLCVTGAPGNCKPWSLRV

In the case of Oc1ccc(/C=C/c2cc(O)cc(O)c2)cc1 [Resveratrol], the “mode of XO inhibition” value [1] was “uncompetitive type”, the Vmax ([1]; inhibitor [C] 3.3 μM) was 0.173 mmol/min and the Vmax ([1]; inhibitor [C] 4.9 μM) was 0.106 mmol/min. The Vmax ([1]; inhibitor [C] 6.6 μM) was 0.088 mmol/min.

In the case of Oc1cc(O)cc(/C=C/c2ccc(O)c(O)c2)c1 [Piceatannol], the “mode of XO inhibition” value [1] was “competitive type”, the Vmax ([1]; inhibitor [C] 3.3 μM) was 0.160 mmol/min and the Vmax ([1]; inhibitor [C] 4.9 μM) was 0.164 mmol/min. For the same molecule, the Vmax ([1]; inhibitor [C] 6.6 μM) was 0.157 mmol/min and the pEC50 [2] was 4.40.

With COc1cc(/C=C/c2cc(O)cc(O)c2)ccc1O [Isorhapontigenin] the pEC50 [3] was 3.52, the “mode of XO inhibition” value [1] was “uncompetitive type” and the Vmax ([1]; inhibitor [C] 2.6 μM) was 0.168 mmol/min. The Vmax ([1]; inhibitor [C] 3.9 μM) was 0.134 mmol/min, the Vmax ([1]; inhibitor [C] 5.3 μM) was 0.061 mmol/min and the pEC50 [2] was 2.84.

From PMC6680845, “Screening and Evaluation of Xanthine Oxidase Inhibitors from Gnetum parvifolium in China” (Molecules, 2019)
